Reference: US20030099693A1, “Wafer” (priority 2001, published 2003)

How the values were obtained:
Format in all cases: biochemical
Details in all cases: Adjusted for Plasma Protein Binding
uPA = uPA (Homo sapiens, UniProt P00749); experiment: Concentration for 50% enzyme inhibition, uPA
TPA = TPA (Homo sapiens, UniProt P00750); experiment: Concentration for 50% enzyme inhibition, TPA
Text: (§1) The solubility range to achieve efficacious doses without adverse effects for a range of protease inhibitors is shown in Table 1.

Plasmin = Plasmin (Homo sapiens, UniProt P00747); experiment: Concentration for 50% enzyme inhibition, Plasmin
Text: as §1

MMP-14 = MMP-14 (Homo sapiens, UniProt P50281); experiment: Concentration for 50% enzyme inhibition, MMP-14
MMP-3 = MMP-3 (Homo sapiens, UniProt P08254); experiment: Concentration for 50% enzyme inhibition, MMP-3
MMP-9 = MMP-9 (Homo sapiens, UniProt P14780); experiment: Concentration for 50% enzyme inhibition, MMP-9
Text: as §1

MMP-2 = target: T1, MMP-2 (Homo sapiens, UniProt P08253); experiment: Concentration for 50% enzyme inhibition, MMP-2
T1 sequence (P08253 110-660): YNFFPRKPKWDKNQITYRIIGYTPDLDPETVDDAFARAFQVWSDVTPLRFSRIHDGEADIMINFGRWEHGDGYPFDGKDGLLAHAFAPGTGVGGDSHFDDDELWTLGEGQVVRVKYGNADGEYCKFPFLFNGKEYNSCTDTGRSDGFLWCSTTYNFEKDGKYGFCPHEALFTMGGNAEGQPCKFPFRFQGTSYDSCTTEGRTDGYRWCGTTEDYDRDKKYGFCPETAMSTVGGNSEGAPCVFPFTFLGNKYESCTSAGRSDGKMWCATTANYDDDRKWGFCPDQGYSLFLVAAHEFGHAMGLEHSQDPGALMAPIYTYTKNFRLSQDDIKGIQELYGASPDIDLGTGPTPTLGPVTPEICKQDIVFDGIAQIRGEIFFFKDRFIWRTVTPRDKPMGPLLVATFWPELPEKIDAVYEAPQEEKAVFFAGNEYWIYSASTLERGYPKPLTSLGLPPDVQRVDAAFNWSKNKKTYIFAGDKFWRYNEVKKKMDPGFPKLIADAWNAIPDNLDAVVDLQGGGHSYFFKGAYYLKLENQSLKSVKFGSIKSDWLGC

Plasmin, sequence (P00747 581-810 limits assumed, species assumed): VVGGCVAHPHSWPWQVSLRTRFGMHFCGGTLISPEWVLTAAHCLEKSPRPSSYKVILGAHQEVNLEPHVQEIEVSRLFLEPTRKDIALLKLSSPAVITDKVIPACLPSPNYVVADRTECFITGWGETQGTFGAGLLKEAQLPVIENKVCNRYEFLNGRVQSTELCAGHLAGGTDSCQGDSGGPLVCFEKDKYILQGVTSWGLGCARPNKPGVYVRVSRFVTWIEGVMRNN
Plasmin, sequence (P00747 97-580 partner limits assumed, species assumed): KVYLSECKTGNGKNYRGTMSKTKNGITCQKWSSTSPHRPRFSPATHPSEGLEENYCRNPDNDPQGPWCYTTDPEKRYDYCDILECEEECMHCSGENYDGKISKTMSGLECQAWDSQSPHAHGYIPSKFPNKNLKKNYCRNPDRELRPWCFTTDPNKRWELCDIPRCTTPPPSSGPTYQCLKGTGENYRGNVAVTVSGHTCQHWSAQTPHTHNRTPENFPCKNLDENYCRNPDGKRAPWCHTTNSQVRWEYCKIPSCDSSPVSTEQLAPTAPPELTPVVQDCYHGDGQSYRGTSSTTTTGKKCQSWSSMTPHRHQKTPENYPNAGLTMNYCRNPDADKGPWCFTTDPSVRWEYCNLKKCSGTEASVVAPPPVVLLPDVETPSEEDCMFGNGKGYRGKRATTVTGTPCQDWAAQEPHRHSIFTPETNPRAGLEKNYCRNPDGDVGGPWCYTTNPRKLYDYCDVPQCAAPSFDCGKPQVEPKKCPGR
MMP-9, sequence (P14780 94-707, species assumed): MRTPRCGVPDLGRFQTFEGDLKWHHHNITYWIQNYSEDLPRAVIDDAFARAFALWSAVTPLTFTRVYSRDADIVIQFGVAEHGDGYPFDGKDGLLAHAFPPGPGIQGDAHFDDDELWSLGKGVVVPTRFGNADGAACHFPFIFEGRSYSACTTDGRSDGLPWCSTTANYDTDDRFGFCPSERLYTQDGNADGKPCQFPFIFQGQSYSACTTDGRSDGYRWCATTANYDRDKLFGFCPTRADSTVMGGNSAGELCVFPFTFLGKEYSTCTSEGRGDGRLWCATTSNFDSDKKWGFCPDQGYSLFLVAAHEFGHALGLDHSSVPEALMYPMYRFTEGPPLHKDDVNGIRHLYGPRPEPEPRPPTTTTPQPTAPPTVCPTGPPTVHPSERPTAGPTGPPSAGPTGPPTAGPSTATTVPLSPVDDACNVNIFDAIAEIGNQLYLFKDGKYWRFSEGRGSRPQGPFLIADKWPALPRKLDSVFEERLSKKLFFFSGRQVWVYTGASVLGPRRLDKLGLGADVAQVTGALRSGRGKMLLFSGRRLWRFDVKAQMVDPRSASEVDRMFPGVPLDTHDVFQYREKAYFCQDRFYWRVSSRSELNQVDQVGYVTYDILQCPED
MMP-3, sequence (P08254 100-477, species assumed): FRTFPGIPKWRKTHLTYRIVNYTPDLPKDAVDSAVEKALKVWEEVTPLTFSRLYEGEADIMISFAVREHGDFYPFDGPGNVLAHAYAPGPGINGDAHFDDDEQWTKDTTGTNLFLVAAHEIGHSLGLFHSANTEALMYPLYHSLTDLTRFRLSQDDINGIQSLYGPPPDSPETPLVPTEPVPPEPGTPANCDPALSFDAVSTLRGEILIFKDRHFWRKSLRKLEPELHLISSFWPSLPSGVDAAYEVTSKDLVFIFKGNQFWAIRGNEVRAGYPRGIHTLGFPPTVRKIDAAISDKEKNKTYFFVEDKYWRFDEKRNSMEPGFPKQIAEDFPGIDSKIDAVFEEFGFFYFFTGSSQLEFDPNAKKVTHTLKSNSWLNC
TPA, sequence (P00750 36-562, species assumed): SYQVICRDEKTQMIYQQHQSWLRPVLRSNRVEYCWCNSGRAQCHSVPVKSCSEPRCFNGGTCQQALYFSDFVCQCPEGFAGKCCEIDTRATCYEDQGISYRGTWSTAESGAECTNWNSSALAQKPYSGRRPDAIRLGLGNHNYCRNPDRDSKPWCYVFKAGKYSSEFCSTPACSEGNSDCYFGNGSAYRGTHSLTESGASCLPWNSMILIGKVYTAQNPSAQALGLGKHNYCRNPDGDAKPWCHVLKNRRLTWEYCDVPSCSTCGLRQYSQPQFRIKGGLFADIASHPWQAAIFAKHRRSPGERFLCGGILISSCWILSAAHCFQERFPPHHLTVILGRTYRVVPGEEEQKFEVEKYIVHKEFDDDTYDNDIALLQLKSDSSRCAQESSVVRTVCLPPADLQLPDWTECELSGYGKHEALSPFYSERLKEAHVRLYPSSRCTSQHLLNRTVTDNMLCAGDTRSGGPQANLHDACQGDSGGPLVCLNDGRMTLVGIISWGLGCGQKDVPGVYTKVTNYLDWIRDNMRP

Structure (SMILES) | IC50 (uPA) [mM] | IC50 (TPA) [mM] | IC50 (Plasmin) [mM] | IC50 (MMP-14) [mM] | IC50 (MMP-3) [mM] | IC50 (MMP-9) [mM] | IC50 (MMP-2) [mM]
NC(N)=Nc1ncc(Cl)c2ccc(-c3cccc(C(=O)O)c3)cc12 [inhibitor X, 3-(4-Chloro-1-guanidino-7-isoquinolyl)benzoic acid] | 0.0117 | > 33.2 | 33.2 |  |  |  | 
COC[C@@H](NC(=O)[C@@H](NC(=O)[C@H](CCCc1ccc(-c2ccccc2)c(C)c1)CC(=O)O)C(C)(C)C)c1ccccc1 [A, (3R)-3-({[(1S)-2,2-Dimethyl-1-({[(1S)-2-methoxy-1-phenylethyl]amino}carbonyl)-propyl]amino}carbonyl)-6-[(3-methyl-4-phenyl)phenyl]hexanoic acid] |  |  |  | 35.6 | 0.0175 | 16.6 | 27.2
